Reference: patent publication US20260256753A1, “USE OF AN OREXIN 2 RECEPTOR AGONIST FOR IMPROVING RESPIRATORY FUNCTION DURING SLEEP” (TAKEDA PHARMACEUTICAL COMPANY LIMITED, priority 2023, published 2026)

Columns and labels:
Assay type in all cases: cell-based
[1] = system: neurons in the pre-Bötzinger complex; test: Electrophysiologic recording of neurons in the pre-Bötzinger complex in rat medullary slices; details: whole cell patch clamp, versus vehicle (0.1% DMSO) control, FIG. 1
Excerpt: (§1) Neonatal rats (postnatal day 1-10) were decapitated and the neuraxis was isolated in a chamber filled with oxygenated artificial cerebrospinal fluid solution (ACSF, in mM: NaCl 125, KCl 2.5, MgCl2 1, CaCl2 2, NaHCO3 25, NaH2PO4 1.25, glucose 25, pH 7.4). The cerebellum was removed, and the brainstem was mounted in the vibratome (VT 1000S; Leica, Milan, Italy) chamber filled with oxygenated gluconate cutting solution (in mM: Kgluconate 130, KCl 15, EGTA 0.2, HEPES 20, glucose 25, kynurenic acid 2, pH 7.4). Transverse medullary slices containing the pre-Bötzinger complex and hypoglossal nucleus were cut (400-600 μm thick). The slices were transferred at room temperature for 1 min in an oxygenated mannitol cutting solution (in mM: D-mannitol 225, glucose 25, KCl 2.5, NaH2PO4 1.25, NaHCO3 26, CaCl2 0.8, MgCl2 8, kynurenic acid 2, pH 7.4). Slices were then transferred in ACSF solution at 30° C. for 30 min and at room temperature for 30 min. At least 30 min prior to the start of recording, each slice was transferred in the recording solution in which the concentration of K+ was raised to 9 mM and that of Mg2+ was decreased to 0.5 mM to ensure the production of long-term and stable rhythm. […] Signals were acquired using Clampex 10.6 software (Axon, Molecular Devices, CA, USA) at a sampling rate of 10-20 kHz and filtered at 2-10 kHz using an 8-pole Bessel filter built within the software and analyzed using Clampfit 10.6 software (pClamp 10.6; Axon, Molecular Devices). […] Bursts were then automatically detected, and burst frequency was measured.
(§2) To evaluate the effects of vehicle (0.1% DMSO) on neuronal activities, after 5 min of stabilization, the neuronal activities under basal condition was recorded for 2-12 min, followed by recording in the presence of vehicle (0.1% DMSO) for 30 min. […]

[2] = system: phrenic motoneurons; test: Electrophysiologic recording of phrenic motoneurons in rat isolated brainstem-spinal cord preparations; details: C3-5 ventral root, versus vehicle control, FIG. 2
Protocol: Neonatal (postnatal day 1-4) rats were decapitated, and the brainstem-spinal cord was dissected in a bath containing ACSF. The cerebellum and pons were ablated. At least 30 min prior to the start of recording, the tissue was transferred in the recording solution in which the concentration of K+ was raised to 5 mM and that of Mg2+ was decreased to 0.5 mM to ensure production of long-term and stable rhythm (modified ACSF, in mM: NaCl 125, MgCl2 0.5, KCl 5, CaCl2 1, NaHCO3 25, NaH2PO4 1.25, glucose 30, pH 7.4). The tissues were glued on coverslips and transferred to a recording chamber and continuously perfused at 27±2° C. with mACSF at a flow rate of 2.3±0.2 mL/min. Activity of phrenic motoneurons was measured in electrophysiological recordings from C3-5 ventral root, outputs of phrenic motoneurons (J. J. Greer, J. C. Smith, J. L. Feldman, Respiratory and locomotor patterns generated in the fetal rat brain stem-spinal cord in vitro, J Neurophysiol 67 (4) (1992) 996-9; J. C. Smith, J. J. Greer, G. S. Liu, J. L. Feldman, Neural mechanisms generating respiratory pattern in mammalian brain stem-spinal cord in vitro. I. Spatiotemporal patterns of motor and medullary neuron activity, J Neurophysiol 64 (4) (1990) 1149-69), using a glass suction electrode. […] The rectification and integration was used for quantification of the activities of phrenic motoneurons because the spontaneous bursts detected in voltage signals are consisting of multiple positive and negative voltages from baseline (T. Sugita, et al.). […] Bursts were then automatically detected, and burst frequency was measured.
To evaluate the effects of vehicle (0.1% DMSO) on neuronal activities, after 5 min of stabilization, the neuronal activities under basal condition were recorded for 2-20 min, followed by recording with vehicle (0.1% DMSO) for 30-40 min. […] As vehicle (0.1% DMSO) had no significant effects on burst frequency of phrenic neurons, potential of drugs was assessed under vehicle (0.1% DMSO). […]

[3] = system: hypoglossal motoneurons; test: Electrophysiologic recording of hypoglossal motoneurons in rat medullary slices; details: whole cell patch clamp, versus vehicle control, FIG. 3
Excerpt: as §1, §2

CC(C)(O)C(=O)N1CC(F)(F)[C@H](NS(C)(=O)=O)[C@@H]1Cc1cccc(-c2cc(F)cc(F)c2)c1F [Compound C, N-{(2S,3R)-4,4-difluoro-1-(2-hydroxy-2-methylpropanoyl)-2-[(2,3′,5′-trifluoro[1,1′-biphenyl]-3-yl)methyl]pyrrolidin-3-yl}methanesulfonamide]
increased burst frequency: burst frequency in neurons in the pre-Bötzinger complex [1] | burst frequency of phrenic motoneurons [2] | burst frequency of hypoglossal motoneurons [3]

COC(=O)N1CCC[C@H](NS(C)(=O)=O)[C@@H]1CO[C@H]1CC[C@@H](c2ccccc2)CC1 (relative stereo) [Compound A, methyl(2R,3S)-3-((methylsulfonyl)amino)-2-(((cis-4-phenylcyclohexyl)oxy)methyl) piperidine-1-carboxylate]
increased burst frequency: burst frequency in neurons in the pre-Bötzinger complex [1] | burst frequency of phrenic motoneurons [2] | burst frequency of hypoglossal motoneurons [3]
